# Results reported in patent publication US12691111B2, “SETD2 inhibitors and related methods and uses, including combination therapies” (EPIZYME, INC., priority 2020, dated 2026).
# What was measured:
# KMS-11 = test: 7-day co-treatment combination study, CellTiter-Glo, Loewe Volume; details: KMS-11 multiple myeloma cells, 7-day co-treatment with Cpd. No. 15
# KMS-28-BM = test: as above; format: cell-based; details: KMS-28-BM multiple myeloma cells, 7-day co-treatment with Cpd. No. 15
# Procedure: (§1) Multiple myeloma (MM) and mantle cell lymphoma (MCL) Cell line cultures in log-linear growth rate were treated with combinations of Cpd. No. 15 and combination partners according to a co-treatment model. […] No. 15 and the combination partner. […] Each combination was tested in quadruplicate wells. The final concentration of DMSO (vehicle) in the assay was 0.1% v/v. Fifty microliters of cell line suspension were directly dispensed to the assay-ready plates with an automated multichannel dispenser on to 384-well assay-ready plates. Assay plates were incubated for seven days in a humidified atmosphere of 5% CO2 at 37° C. Quantification of the effect of single agents or combinations on cell viability was performed through measurement of cellular adenosine triphosphate (ATP) using a CellTiter-Glo® (Promega, MadisonWIs.) Luminescent Cell Viability Assay. Luminescence was detected using a SpectraMax M5 microplate reader (Molecular Devices, Sunnyvale, CA). Concentration response plots were generated in GraphPad Prism version 7.0 for Windows, GraphPad Software, (La Jolla, CA) and curves fitted to a four-parameter logistic model with variable slope. Percent of inhibition was calculated at each treatment concentration.
# (§2) The results of these combinations are summarized in Tables A and B (multiple myeloma cell lines), and Tables C and D (mantle cell lymphoma cell lines).
# MAVER1 = test: as above; format: cell-based; details: MAVER1 mantle cell lymphoma cells, 7-day co-treatment with Cpd. No. 15
# Procedure: as §1, §2
# JEKO1 = test: as above; format: cell-based; details: JEKO1 mantle cell lymphoma cells, 7-day co-treatment with Cpd. No. 15
# Procedure: as §1, §2
# MM1.S = test: as above; format: cell-based; details: MM1.S multiple myeloma cells, 7-day co-treatment with Cpd. No. 15
# Procedure: as §1, §2
# L363 = test: as above; format: cell-based; details: L363 multiple myeloma cells, 7-day co-treatment with Cpd. No. 15
# Procedure: as §1, §2
# Z138 = test: as above; format: cell-based; details: Z138 mantle cell lymphoma cells, 7-day co-treatment with Cpd. No. 15
# Procedure: as §1, §2
# RPMI-8226 = test: as above; format: cell-based; details: RPMI-8226 multiple myeloma cells, 7-day co-treatment with Cpd. No. 15
# Procedure: as §1, §2
# MINO = test: as above; format: cell-based; details: MINO mantle cell lymphoma cells, 7-day co-treatment with Cpd. No. 15
# Procedure: as §1, §2
# KMS34 = test: as above; format: cell-based; details: KMS34 multiple myeloma cells, 7-day co-treatment with Cpd. No. 15
# Procedure: as §1, §2
# NCI-H929 = test: as above; format: cell-based; details: NCI-H929 multiple myeloma cells, 7-day co-treatment with Cpd. No. 15
# Procedure: as §1, §2
# GRANTA519 = test: as above; format: cell-based; details: GRANTA519 mantle cell lymphoma cells, 7-day co-treatment with Cpd. No. 15
# Procedure: as §1, §2
# REC1 = test: as above; format: cell-based; details: REC1 mantle cell lymphoma cells, 7-day co-treatment with Cpd. No. 15
# Procedure: as §1, §2
# JVM2 = test: as above; format: cell-based; details: JVM2 mantle cell lymphoma cells, 7-day co-treatment with Cpd. No. 15
# Procedure: as §1, §2
# SUDHL-6 = test: Pre-treatment model combination study (4 days pre-treatment, 3 days co-treatment), CellTiter-Glo, Loewe Volume; format: cell-based; details: SUDHL-6 diffuse large B-cell lymphoma cells, 4 days Cpd. No. 15 pre-treatment then 3 days co-treatment
# Procedure: (§3) Diffuse large B-cell lymphoma cells were seeded into flasks and pre-treated with several concentrations of Cpd. No. 15 or DMSO. Cells were then split adjusted to initial density, replated and co-treated Cpd. No. 15 and a second agent of interest using the HP D300 digital dispenser (Tecan Group, Mannedorf, Switzerland) in tissue culture treated solid white 384-well plates for additional 3 days. […] After 3 days cotreatment, cell viability was measured via ATP content using CellTiter-Glo® (Promega, Madison, WI) and luminescence was detected using a SpectraMax M5 microplate reader (Molecular Devices, Sunnyvale, CA).
# (§4) Diffuse large B-cell lymphoma (DLBCL) cell line cultures in log-linear growth rate were treated with combinations of Cpd. No. 15 and combination partners according to a pre-treatment model. Cells were seeded first into 8 flasks and pre-treated with 7 different concentrations of Cpd. […] Cells were harvested from each flask and re-seeded onto the corresponding 384-well plate with the same concentration of Cpd. No. 15. and 9 concentrations of its combination partner in triplicate wells. The final concentration of DMSO (vehicle) in the assay was 0.1% v/v. Fifty microliters of cell line(s) suspension were directly dispensed to the assay-ready plates with an automated multichannel dispenser on to 384-well assay-ready plates. Assay plates were incubated for three days in a humidified atmosphere of 5% CO2 at 37° C. Quantification of the effect of single agents or combinations on cell viability was performed through measurement of cellular adenosine triphosphate (ATP) using CellTiter-Glo® (Promega, Madison, WI). Luminescence was detected using a SpectraMax M5 microplate reader (Molecular Devices, Sunnyvale, CA). Concentration response plots were generated in GraphPad Prism version 8.0 for Windows, GraphPad Software, (La Jolla, CA) and curves fitted to a four-parameter logistic model with variable slope. Percent of inhibition was calculated at each treatment concentration.
# KARPAS422 = test: as above; format: cell-based; details: KARPAS422 diffuse large B-cell lymphoma cells, 4 days Cpd. No. 15 pre-treatment then 3 days co-treatment
# Procedure: as §3, §4
# WSUDLCL2 = test: as above; format: cell-based; details: WSUDLCL2 diffuse large B-cell lymphoma cells, 4 days Cpd. No. 15 pre-treatment then 3 days co-treatment
# Procedure: as §3, §4
# SUDHL-2 = test: as above; format: cell-based; details: SUDHL-2 diffuse large B-cell lymphoma cells, 4 days Cpd. No. 15 pre-treatment then 3 days co-treatment
# Procedure: as §3, §4
smiles,measurement,setting,value
"CC1(C)CCC(CN2CCN(c3ccc(C(=O)NS(=O)(=O)c4ccc(NCC5CCOCC5)c([N+](=O)[O-])c4)c(Oc4cnc5[nH]ccc5c4)c3)CC2)=C(c2ccc(Cl)cc2)C1 [Venetoclax, venetoclax]",Combination effect (Loewe Volume class) of Cpd. No. 15 with combination partner,KMS-11,Synergy (VLoewe>1: synergy)
same,Combination effect (Loewe Volume class) of Cpd. No. 15 with combination partner,KMS-28-BM,Additivity (between 1 and −1: additivity)
same,Combination effect (Loewe Volume class) of Cpd. No. 15 with combination partner,MAVER1,Synergy (VLoewe>1: synergy)
same,Combination effect (Loewe Volume class) of Cpd. No. 15 with combination partner,JEKO1,Additivity (between 1 and −1: additivity)
same,Combination effect (Loewe Volume class) of Cpd. No. 15 with combination partner,MM1.S,Additivity (between 1 and −1: additivity)
same,Combination effect (Loewe Volume class) of Cpd. No. 15 with combination partner,L363,Additivity (between 1 and −1: additivity)
same,Combination effect (Loewe Volume class) of Cpd. No. 15 with combination partner,Z138,Synergy (VLoewe>1: synergy)
same,Combination effect (Loewe Volume class) of Cpd. No. 15 with combination partner,RPMI-8226,Additivity (between 1 and −1: additivity)
same,Combination effect (Loewe Volume class) of Cpd. No. 15 with combination partner,MINO,Additivity (between 1 and −1: additivity)
same,Combination effect (Loewe Volume class) of Cpd. No. 15 with combination partner,KMS34,Additivity (between 1 and −1: additivity)
same,Combination effect (Loewe Volume class) of Cpd. No. 15 with combination partner,NCI-H929,Synergy (VLoewe>1: synergy)
same,Combination effect (Loewe Volume class) of Cpd. No. 15 with combination partner,GRANTA519,Synergy (VLoewe>1: synergy)
same,Combination effect (Loewe Volume class) of Cpd. No. 15 with combination partner,REC1,Additivity (between 1 and −1: additivity)
same,Combination effect (Loewe Volume class) of Cpd. No. 15 with combination partner,JVM2,Synergy (VLoewe>1: synergy)
same,Combination effect (Loewe Volume class) of Cpd. No. 15 with combination partner,SUDHL-6,Synergy (VLoewe>1: synergy)
same,Combination effect (Loewe Volume class) of Cpd. No. 15 with combination partner,KARPAS422,No effect
same,Combination effect (Loewe Volume class) of Cpd. No. 15 with combination partner,WSUDLCL2,Synergy (VLoewe>1: synergy)
same,Combination effect (Loewe Volume class) of Cpd. No. 15 with combination partner,SUDHL-2,Synergy (VLoewe>1: synergy)
